Experimental findings from patent publication US20240130988A1, “Use of stilbene compounds in the preparation of anti-tumor drugs” (Guangzhou AnHao Pharmaceutical Technology CO., LTD., priority 2022, published 2024) are described below.

The structures appear in SMILES notation.

What all share (assay type): in vivo
One data set has as its system human lung cancer A549. Briefly: Compound 8 combined with carboplatin, human lung cancer A549 xenograft in nude mice. The following applies: ip: carboplatin 10 mg/kg, compound 8 200 mg/kg, combination 10 + 200. The text has this:
(§1) Experimental method: The model of human lung cancer A549 transplant tumor in nude mice was established by subcutaneously inoculating human lung cancer A549 cell lines into the armpits of nude mice. Cells were inoculated in an amount of 1×10^6, and after formation of the transplanted tumors by inoculation, the cells were passed 3 generations in nude mice before use. The vigorous growth of tumor tissue was cut into approximate 1.5 mm^3, and homogenized under sterile conditions, to prepare 1×10^7/mL of cell suspension. 0.1 mL of cell suspension was subcutaneously inoculated into the right armpit of nude mice. For transplanted tumors in nude mice, the diameter was measured with vernier caliper. After the tumor grew to 100 mm^3, the animals were randomly divided into groups, with 6 mice in each group. Using the method of measuring tumor diameter, the anti-tumor effect of test compound was dynamically Observed. Compound 8 was administered at 200 mg/kg by intraperitoneal injection, once every other day, for three weeks; carboplatin was administered at 10 mg/kg by intraperitoneal injection, once every other day, for three weeks. The measurement frequency of tumor diameter was once every three days. The dosage by volume was 0.1 mL/20 g. The mice in the negative control group were given an equal amount of physiological saline by intravenous injection. The effect of combined medicaments was evaluated based on the Q value calculated by Jin's formula: […]
Ea+b represents the tumor inhibitory rate of the combined medicaments, while Ea and Eb represent the tumor inhibitory rates of medicament A and medicament B, respectively. For example, the Q value of 0.85-1.15 means additive action (+), while the Q value of >1.15 means synergistic action (++).
(In general: A xenograft is tissue or cells of one species grown in another, often human tumour cells in immunodeficient mice.)

Data set [1] concerns human liver cancer Bel7404. Briefly: Compound 3 combined with lenvatinib, human liver cancer Bel7404 xenograft in nude mice. Particulars: po: lenvatinib 10 mg/kg, compound 3 400 mg/kg, combination 10 + 400. The text has this: Experimental method: The model of human liver cancer Bel7404 transplant tumor in nude mice was established by subcutaneously inoculating human liver cancer Bel7404 cell lines into the armpits of nude mice. Cells were inoculated in an amount of 1×10^6, and after formation of the transplanted tumors by inoculation, the cells were passed 3 generations in nude mice before use. The vigorous growth of tumor tissue was cut into approximate 1.5 mm^3, and homogenized under sterile conditions, to prepare 1×10^7/mL of cell suspension. 0.1 mL of cell suspension was subcutaneously inoculated into the right armpit of nude mice. For transplanted tumors in nude mice, the diameter of the transplanted tumor was measured with vernier caliper. After the tumor grew to 100 mm^3, the animals were randomly divided into groups, with 6 animals in each group. Using the method of measuring tumor diameter, the anti-tumor effect of test compound was dynamically observed. Compound 3 was orally administered at 400 mg/kg, once a day, for three weeks; lenvartinib was also orally administered at 10 mg/kg, once a day, for two weeks. The measurement frequency of tumor diameter was once every three days. The animals in the negative control group were orally given an equal amount of physiological saline. The effect of combined medicaments was evaluated based on the Q value calculated by the Jin's formula: […]
Ea+b represents the tumor inhibitory rate of the combined medicaments, while Ea and Eb represent the tumor inhibitory rates of medicament A and medicament B, respectively. For example, the Q value of 0.85-1.15 means additive action (+), and the Q value of >1.15 means synergistic action (++).

Data set [2] relates to human gastric cancer SGC7901. Briefly: Compound 6 combined with paclitaxel, human gastric cancer SGC7901 xenograft in nude mice. Particulars: paclitaxel 10 mg/kg iv, compound 6 200 mg/kg ip, combination 10 + 200.
From the text: as §1, with “gastric” for “lung”, “SGC7901” for “A549”, “Using the method of measuring tumor diameter, the anti-tumor effect of test compound was dynamically Observed. Compound 8 was administered at 200 mg/kg by intraperitoneal injection, once every other day, for three weeks; carboplatin was administered at 10 mg/kg by intraperitoneal injection, once every other day, for three weeks.” left out
Ea+b represents the tumor inhibitory rate of the combined medicaments, while Ea and Eb represent the tumor inhibitory rates of medicament A and medicament B, respectively.

As for `N.N.O=C([O-])C1(C(=O)[O-])CCC1.[Pt+2]` [Carboplatin], in the data set on human lung cancer A549, the “RTV (d 21)” value was 6.63 ± 1.42, the “Terminal weight” value stood at 21.5 ± 0.9 g and the “Tumor inhibitory rate %” value amounted to 48.48%.

As to `COc1cc2nccc(Oc3ccc(NC(=O)NC4CC4)c(Cl)c3)c2cc1C(N)=O` [Lenvatinib, reference compound], in data set [1], the “RTV (d 21)” value was 3.89 ± 1.46, the “Terminal weight” value is 21.8 ± 0.7 g and the “Tumor inhibitory rate %” value is 65.36%.

For `CC(=O)O[C@H]1C(=O)[C@@]2(C)[C@H]([C@H](OC(=O)c3ccccc3)[C@]3(O)C[C@H](OC(=O)[C@H](O)[C@@H](NC(=O)c4ccccc4)c4ccccc4)C(C)=C1C3(C)C)[C@]1(OC(C)=O)CO[C@@H]1C[C@@H]2O` [Paclitaxel, reference compound], in data set [2], the “RTV (d 21)” value stood at 7.37 ± 1.76, the “Terminal weight” value turned out to be 21.7 ± 0.6 g and the “Tumor inhibitory rate %” value worked out at 45.49%.
